Measured values: publication PMC13625682, “Inhibitor fluorination pattern modulates protein surface dynamics and chemically induced dimerization” (Chemical Science, 2026)
Like-named read-outs stand apart in the source and are kept apart here.

Columns and labels:
Tpx [1] = test system: T1, Tpx; test: SEC-MALS of Tpx/inhibitor complexes; type: binding, Trypanosoma brucei; conditions: for SEC-MALS Mw of Tpx/inhibitor complex: 100 µM analyte, value ± measurement error
T1 construct: with residue G1 and end with N144; GAMG (TEV-cleavage scar that replaces Met1); Trx-His6 (thioredoxin fusion with His6 tag) (N, cleaved yes); made in house; host or cells: E. coli BL21-Gold(DE3)
Procedure: Size Exclusion Chromatography Coupled To Multi-Angle Light Scattering (SEC-MALS) To determine the oligomeric state of Tpx/inhibitor complexes by SEC-MALS, 100 µM of purified Tpx/inhibitor complexes were applied to a SEC column (Superdex75 10/300, GE Healthcare) in Tpx buffer (25 mM NaPi pH 7.5, 150 mM NaCl) at a flow rate of 0.5 ml/min at room temperature. The molecular weights of the eluting proteins were measured using a Dawn Heleos 8+ light scattering detector and an Optilab T-rEX refractive index detector (Wyatt Technologies). Data were analyzed with […]

HEK293 cells = test: HEK293 cell survival assay (resazurin); type: cell-based; conditions: Homo sapiens; HEK293, 24 h incubation
Procedure: Trypanosome and HEK293 Cell Survival Assays […]
(§1) 1-5 in human embryonic kidney (HEK293) was determined with a resazurin assay, which is based on the reduction of resazurin to fluorescent resorufin by living cells.6 HEK293 cells were maintained in DMEM high glucose supplemented with 10% FBS, 1% penicillin/streptomycin and 1% L-glutamine at 37 °C and 5% CO2. For the toxicity screen, 40000 cells per well were seeded in a 48 well plate (400 µL medium/well) and incubated at 37 °C for 24 hours before treatment with inhibitors 1-5. Cells were treated with 0.1 µM, 0.3 µM, 0.7 µM, 1 µM, 3 µM, 7 µM, 10 µM, 30 µM, 70 µM and 100 µM of the respective inhibitor, DMSO treatment served as negative control. The overall DMSO concentration was kept at 1 vol.% DMSO per well. After 24 hours of treatment, the medium was exchanged with a medium/resazurin mixture (0.015 mg/mL resazurin per well) and the cells were incubated for 3 h at 37 °C before transferring 100 µl medium from each well into a black opaque-walled 96-well plate. Fluorescence was directly measured using a CLARIOstar Plus reader (BMG Labtech GmbH, Ortenberg, Germany) with a 545-20 nm excitation / 600-40 nm emission filter. Each experiment was done in biological quadruplets and cell viability was analyzed in comparison to the DMSO control by plotting relative fluorescence units (RFU) against inhibitor concentration (Prism, Graphpad). A fifty percent decrease in relative fluorescence indicated the compound concentration where half of the HEK293 cells had died, which […]
(§2) In Vitro Tpx Activity Assay and Inactivation Kinetics
(§3) To reconstitute the peroxide clearance cascade (PCC), its components (at final concentrations of 360 µM NADPH, 0.1 U/mL TR, 110 µM TS2, 5 µM Tpx, 180 nM Px, 100 µM H2O2) were mixed in a total volume of 200 µL in a 10 mm quartz cuvette. First, 15 µL NADPH (4.8 mM in TR buffer (40 mM HEPES pH 7.5, 1 mM Na-EDTA), 10 µL TR (2 U/mL in TR buffer), 10 µL TS2 (2.2 mM in sterile filtered, deionized

Tpx [2] = test system: T1, Tpx; test: In vitro Tpx activity assay: reconstituted peroxide clearance cascade, NADPH consumption followed photometrically; type: biochemical, Trypanosoma brucei; conditions: for speed of Tpx inactivation: Tpx-equimolar concentrations (5 µM); for second-order rate constant k2nd of irreversible Tpx inhibition: 5 µM Tpx, 25 °C, slope of kobs vs inhibitor concentration
[3] = test system: T. brucei brucei 449 Lister 427 parasites; test: Trypanosome cell survival assay (ATPlite luminescence); type: cell-based, Trypanosoma brucei brucei; conditions: for Selectivity index (24 h), EC50 HEK293 cells divided by EC50 T. brucei: HEK293 vs T. brucei brucei 449, 24 h; for EC50: Trypanosoma brucei
Procedure: Trypanosome and HEK293 Cell Survival Assays
Half maximal effective concentration (EC50) values of compounds 1- 5 against T. brucei brucei 449 Lister 427 parasites were determined with an ATPlite Luminescence assay as described previously.4,5 The EC50 was defined as the compound concentration at which a fifty percent decrease in relative […]
as §1, §2, §3

Tpx WT = target: T2, Tpx WT (Trypanosoma brucei brucei, UniProt O77404); test: Dilution ITC of covalent Tpx/inhibitor complexes (dimer dissociation); type: binding; conditions: according to dimer KD
T2 construct: with residue G1 and end with N144; GAMG (TEV-cleavage scar that replaces Met1); Trx-His6 (thioredoxin fusion with His6 tag) (N, cleaved yes); made in house; host or cells: E. coli BL21-Gold(DE3)
T2 sequence (O77404 with tags, fused parts or gaps limits assumed): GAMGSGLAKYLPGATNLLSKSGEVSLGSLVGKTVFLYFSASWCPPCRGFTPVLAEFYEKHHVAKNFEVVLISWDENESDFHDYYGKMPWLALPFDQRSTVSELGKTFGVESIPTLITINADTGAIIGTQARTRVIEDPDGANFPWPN
Procedure: Isothermal Titration Calorimetry (ITC)
Dissociation coefficients (K D) of dimeric Tpx/inhibitor complexes were determined via dilution ITC following our previously established protocol. 4 Purified complexes in Tpx buffer were titrated to Tpx buffer, and the heat signals of each injection was recorded. To observe dimer dissociation, measurements were conducted with 78 µM (Tpx/para-CFT), 122 µM (Tpx/meta-CFT), 277 µM (Tpx/ortho-CFT), 821 µM (Tpx/CtFT), and 176 µM (Tpx/CPT). A MicroCal PEAQ-ITC Automated […]
1, 3 and 5. After the initial wait time of 2 min, 19 serial injections of 2 μL with a spacing of 3 min where performed. The reference power was set to 11 μcal sec-1 and stirring speed to 750 rpm. A MicroCal PEAQ-ITC (Malvern Panalytical) with the same experimental setup was used to determine the KD value of covalent Tpx WT complexes with meta-CFT (2, 10 injections), and CtFT (4, 20 injections). Each titration was performed in a technical triplicate, and controls included water to water and unmodified Tpx to buffer titrations. Transferability between instruments was checked by repeating the Tpx/para -CFT […]
titration. […]

Tryparedoxin = target: T3, Tryparedoxin (Trypanosoma brucei, UniProt O77404); test: dilution ITC
T3 chain: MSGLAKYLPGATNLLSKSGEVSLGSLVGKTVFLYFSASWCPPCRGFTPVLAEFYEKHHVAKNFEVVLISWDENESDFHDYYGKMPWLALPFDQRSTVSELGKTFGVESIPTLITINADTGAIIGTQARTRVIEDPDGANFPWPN

[4] = bloodstream form T. brucei brucei 449, 24 h incubation, read-out: EC50 (24 h)
[5] = bloodstream form T. brucei brucei 449, 48 h incubation, read-out: EC50 (48 h)

With `O=c1[nH]c(CCl)nc2scc(-c3ccccc3F)c12` [ortho-CFT, 2-(chloromethyl)-5-(2-fluorophenyl)thieno[2,3-d]-pyrimidin-4(3H)-one] as the molecule, how does the “SEC-MALS Mw of Tpx/inhibitor complex” value (Tpx [1]) read?
The value was 17.5 ± 0.9 kDa.

What about the EC50 (HEK293 cells) of the same molecule?
Its EC50 is 5 ± 0.6 µM.

What about the “speed of Tpx inactivation” value (Tpx [2]) of the same molecule?
Its value is “fastest”.

And the “Selectivity index (24 h), EC50 HEK293 cells divided by EC50 T. brucei” value [3]?
The value was 5.0 ± 1.6.

What about the EC50 [3, 4] of the same molecule?
Its EC50 is 1 ± 0.3 µM.

What about the EC50 [3, 5] of the same molecule?
Its EC50 is 0.8 ± 0.3 µM.

And the “portion of Tpx WT/inhibitor complex dimeric” value (Tpx WT; 750 µM analyte)?
Its value is 87%.

Which “SEC-MALS Mw of Tpx/inhibitor complex” value (Tpx [1]) does the source give for `O=c1[nH]c(CCl)nc2scc(-c3cccc(F)c3)c12` [meta-CFT, 2-(chloromethyl)-5-(3-fluorophenyl)thieno[2,3-d]pyrimidin-4(3H)-one] here?
Its value is 23.6 ± 0.9 kDa.

What about the EC50 (HEK293 cells) of the same molecule?
Its EC50 is 6.5 ± 0.5 µM.

What about the “second-order rate constant k2nd of irreversible Tpx inhibition” value (Tpx [2]) of the same molecule?
Its value is 933 ± 17 M⁻¹ s⁻¹.

And the “speed of Tpx inactivation” value (Tpx [2])?
Its value is “slowest”.

What about the “Selectivity index (24 h), EC50 HEK293 cells divided by EC50 T. brucei” value [3] of the same molecule?
Its value is 5.0 ± 1.6.

What about the EC50 [3, 4] of the same molecule?
The EC50 was 1.3 ± 0.4 µM.

And the EC50 [3, 5]?
Its EC50 is 1.1 ± 0.5 µM.

What does the source list for `O=c1[nH]c(CCl)nc2scc(-c3ccc(F)cc3)c12` [para-CFT, 2-(chloromethyl)-5-(4-fluorophenyl)-thieno[2,3-d]pyrimidin-4(3H)-one]?
SEC-MALS Mw of Tpx/inhibitor complex (Tpx [1]): 21.3 ± 1.1 kDa; EC50 (HEK293 cells): 3.9 ± 0.4 µM; Selectivity index (24 h), EC50 HEK293 cells divided by EC50 T. brucei [3]: 3.0 ± 0.8; EC50 [3, 4]: 1.3 ± 0.3 µM; EC50 [3, 5]: 1.5 ± 0.3 µM; portion of Tpx WT/inhibitor complex dimeric (Tpx WT; 100 µM analyte): 85%

`O=c1[nH]c(CCl)nc2scc(-c3ccccc3)c12` [CPT, 2-(chloromethyl)-5-phenylthieno[2,3-d]pyrimidin-4(3H)-one] was tested. Which “SEC-MALS Mw of Tpx/inhibitor complex” value (Tpx [1]) did it give?
Its value is 19.5 ± 0.6 kDa.

And the EC50 (HEK293 cells)?
The EC50 was 4.9 ± 0.6 µM.

What about the “Selectivity index (24 h), EC50 HEK293 cells divided by EC50 T. brucei” value [3] of the same molecule?
Its value is 8.2 ± 4.2.

What about the EC50 [3, 4] of the same molecule?
Its EC50 is 0.6 ± 0.3 µM.

And the EC50 [3, 5]?
Its EC50 is 1.4 ± 0.4 µM.

For `O=c1[nH]c(CCl)nc2scc(-c3ccc(C(F)(F)F)cc3)c12` [CtFT, 2-(chloromethyl)-5-(4-(trifluoromethyl)phenyl)thieno[2,3-d]pyrimidin-4(3H)-one], which “oligomeric state of inhibitor-bound Tpx by SEC-MALS” value (Tpx [1]; 100 µM analyte concentration) is on record?
Its value is “remained monomeric”.

And the “SEC-MALS Mw of Tpx/inhibitor complex” value (Tpx [1])?
Its value is 16.6 ± 0.7 kDa.

And the EC50 (HEK293 cells)?
Its EC50 is 3.9 ± 0.3 µM.

What about the “second-order rate constant k2nd of irreversible Tpx inhibition” value (Tpx [2]) of the same molecule?
The value was 1870 ± 17 M⁻¹ s⁻¹.

And the “speed of Tpx inactivation” value (Tpx [2])?
The value was “fastest”.

And the “Selectivity index (24 h), EC50 HEK293 cells divided by EC50 T. brucei” value [3]?
Its value is 1.8 ± 0.5.

What about the EC50 [3, 4] of the same molecule?
The EC50 was 2.2 ± 0.6 µM.

And the EC50 [3, 5]?
The EC50 was 2.5 ± 0.6 µM.

B1: Tryparedoxin (protein)
chain: T3 chain
modifications: meta-CFT covalently bound at C40
With B1 as the molecule, how does the Kd (Tryparedoxin) read?
Its Kd is 3.7 µM.

B2: Tryparedoxin (protein)
chain: T3 chain
modifications: CtFT covalently bound at C40
With B2 as the molecule, how does the Kd (Tryparedoxin) read?
The Kd was 410 µM.
